This is an account of results in patent US12037324B2, “Biarylmethyl heterocycles” (Université de Montréal, priority 2016, dated 2024).

Structures are written as SMILES. pEC50: −log10 of the molar value.

Common to all, as to format: cell-based
For test [1], the target named is T1, hAT1R (Homo sapiens, UniProt P30556).
T1 sequence (P30556 1-359): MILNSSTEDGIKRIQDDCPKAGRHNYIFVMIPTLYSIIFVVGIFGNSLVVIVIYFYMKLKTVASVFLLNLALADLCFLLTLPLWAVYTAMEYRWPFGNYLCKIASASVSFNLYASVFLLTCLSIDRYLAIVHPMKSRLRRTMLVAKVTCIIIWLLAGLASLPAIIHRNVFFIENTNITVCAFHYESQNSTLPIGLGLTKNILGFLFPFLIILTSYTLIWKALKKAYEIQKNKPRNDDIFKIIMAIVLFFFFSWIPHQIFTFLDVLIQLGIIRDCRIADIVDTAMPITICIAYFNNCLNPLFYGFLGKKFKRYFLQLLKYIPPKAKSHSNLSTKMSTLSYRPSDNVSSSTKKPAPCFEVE
The test is described as follows: BRET Gq biosensor assay, agonist response, HEK293 cells. The following applies: section of the 42nd table directly before the BRET P63 section. How it is done: BRET β-arrestin2 and Gq Activation Assays
In another aspect of the invention, association of the ATIR with signaling proteins is assessed using bioluminescence resonance energy transfer assays (Stephane Angers, Ali Salahpour et al. 2002). This technology measures the association between bioluminescent and fluorescent protein tags.
Several of the plasmid constructs used in BRET experiments were previously described. Briefly, the coding sequence of β-arrestin2 was fused to Renilla luciferase II to generate β-arrestin2-Rluc (Quoyer, Janz et al. 2013). The membrane targeting motif from K-Ras, CAAX motif (GKKKKKKSKTKCVIM), was fused to Renilla GFP to create rGFP-CAAX plasmid (Namkung Y et al., Nat Commun (2016) 7, 12178). The Renilla luciferase II was inserted in the Gaq protein to generate Gaq-Rluc (Breton, Sauvageau et al. 2010). The Gγ1 protein was tagged with GFP10 to obtain GFP-Gyl, using the same strategy described previously for GFP-Gy2 (Gales, Rebois et al. 2005). The Gaq binding domain of the p63RhoGEF protein (amino acids 295-502) was fused to Renilla luciferase II to create P63-Rluc. Finally, the hAT1R plasmid construct encoding the receptor was generated by optimizing the coding sequence of human angiotensin II receptor (GeneOptimizer from ThermoFisher), and adding an artificial cleavable signal peptide from bovine prolactin ([…]) in N-terminus of the receptor to increase cell surface expression.
Gq Biosensor Assay HEK293 cells were cultured in DMEM supplemented with Penicillin-Streptomycin and 10% fetal bovine serum. Two days before the BRET experiment, HEK293 cells were transfected with hAT1R expression plasmid (200 ng/well) as well as Gaq-Rluc (100 ng/well), Gβ1 (375 ng/well) and GFP-Gγ1 (625 ng/well), using linear polyethylenimine 25 kDa (PEI) at a PEI:DNA ratio of 3:1. Transfected cells were directly seeded in 96-well plates, at a density of 35 000 cells per well, and maintained in culture for the next 48 h.
BRET experiments were carried out subsequently using the following procedures: cells were washed once with Tyrode's buffer (137 mM NaCl, 1 mM CaCl2, 0.9 mM KCl, […], 3.6 mM NaH2PO4, 5.5 mM glucose, 12 mM NaHCO3, and 25 mM HEPES, pH 7.4) and 90 μl of Tyrode's buffer was added to each well. Cells were equilibrated in their new buffer at room temperature for at least 30 minutes. Following the equilibration period, the coelenterazine substrate was first added to the cells, 10 μl per well of a 10×solution (prolume purple coelenterazine at a final concentration of 2 μM), immediately followed by compound addition using the HP D300 digital dispenser from Tecan (10 singlicate concentrations). Cells were incubated for 5 min at room temperature and BRET readings were then collected using a Synergy Neo Multi-Mode reader from BioTek with BRET2 filters 410/515, to record agonist response. […] A second reading was collected 5 min after this second addition, using the Synergy Neo Multi-Mode reader from BioTek with BRET2 filters 410/515, to record antagonist response. The BRET signal was determined by calculating the ratio of the light emitted by GFP (515 nm) over the light emitted by the Rluc (410 nm). To analyze agonist response, BRET signal values were converted into percentage of activation using the non-stimulated control as 0% and AngII maximal response as 100%. Sigmoidal concentration-response curves were generated with those normalized values using a 4-parameter logistic equation (IDBS ActivityBase software), to determine EC50 of the different compounds. In the case of antagonist response analysis, BRET signal values were converted into percentage of inhibition using the fixed dose of AngII (corresponding to the EC50) as 0% and non-stimulated control as 100%. Sigmoidal concentration-response curves were generated with those normalized values using a 4-parameter logistic equation (IDBS ActivityBase software), to determine IC50 of the different compounds.

The target in test [2] is T1, hAT1R. The test is described as follows: BRET β-arrestin2 biosensor assay, higher receptor expression (hAT1R 5 ng/well), HEK293 cells. The following applies: for pEC50: High AT1R Expression. (In BRET a luciferase serves as donor, and the signal depends on an acceptor being close.)
Another test addresses T2, AGTR1 (Homo sapiens, UniProt P30556).
T2 construct: host or cells: Pathunter CHO-K1 AGTR1 β-arrestin cell line (CHO-K1)
T2 sequence (P30556 1-359): T1 sequence (P30556 1-359)
The test is described as follows: DiscoveRx β-arrestin2 recruitment assay (enzyme complementation, Pathunter CHO-K1 AGTR1 β-arrestin cell line). The conditions noted are these: DiscoveRx β-arrestin2 recruitment. In a few lines: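 Chemiluminescent enzyme-complementation read-out of β-arrestin2 recruitment to AGTR1 in engineered CHO-K1 cells after 90 min compound exposure at 37° C. Values are 4-parameter logistic EC50s in agonist mode, IC50s in antagonist mode, with efficacy relative to the maximal All response.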

In the case of `CCCCC(=O)N(Cc1ccc(-c2cc(-c3ccccc3)ccc2-c2noc(=O)[nH]2)cc1)C1(C(=O)O)CCCCC1` [Example 281], the negative logarithm of the EC50 (pEC50) (as a rule, −log10 of the EC50, conventionally taken in molar units) is 6.64 at hAT1R [1], 7.98 at hAT1R [2] and 7.38 on AGTR1. In addition, the “BRET β-Arrestin2 High AT1R Expression Ymax (%)” value at hAT1R [2] was determined as 93.1%. Besides, the “DiscoveRx β-arrestin2 Ymax (%)” value on AGTR1 (maximal response) is 47.4%.
The corresponding values for `CCCCC(=O)N(Cc1ccc(-c2cc(-c3ccccc3)ccc2-c2nn[nH]n2)cc1)[C@]1(C(=O)O)CC[C@@H](C)CC1` [Example 278] are 5.92, 7.89, 7.35, 87.2% and 51.9%.
The corresponding values for `CCOc1nc2cccc(C(=O)O)c2n1Cc1ccc(-c2cc(-c3ccc(C(=O)N(C)C)cc3)ccc2C(=O)O)cc1` [Example 320] are < 4.00, 6.76, 7.39, 86.8% and 55.7%.
`CCCCC1=NC2(CCCC2)C(=O)N1Cc1ccc(-c2cc(-c3ccccc3)ccc2-c2nn[nH]n2)nc1` [Example 451, 3-((6-(4-(1H-Tetrazol-5-yl)-[1,1′-biphenyl]-3-yl)pyridin-3-yl)methyl)-2-butyl-1,3-diazaspiro[4.4]non-1-en-4-one]: on hAT1R [1], the negative-log EC50 (pEC50) is 5.39. At hAT1R [2], the “BRET β-Arrestin2 High AT1R Expression Ymax (%)” value is 44.8% and the pEC50 is 4.86. For the same compound, at AGTR1, the “DiscoveRx β-arrestin2 Ymax (%)” value is listed as 11.4% and the pEC50 is 7.63.
On to `CCCCc1ncc(C(=O)NCc2nccs2)n1Cc1ccc(-c2cc(-c3ccccc3)ccc2-c2nn[nH]n2)cc1` [Example 356], for which the pEC50 at hAT1R [1] is 7.44; at hAT1R [2], 7.75; at AGTR1 it was 7.56. On hAT1R [2], the “BRET β-Arrestin2 High AT1R Expression Ymax (%)” value came out at 84.7%. Further, the “DiscoveRx β-arrestin2 Ymax (%)” value on AGTR1 (maximal response) was 41.5%.
Consider `CCCCC(=O)N(Cc1ccc(-c2cc(-c3ccccc3)ccc2-c2nn[nH]n2)nc1)[C@H](C(=O)O)C(C)C` [Example 430], for which the pEC50 at hAT1R [1] is 6.56. Besides, at hAT1R [2], the “BRET β-Arrestin2 High AT1R Expression Ymax (%)” value stood at 78.9% and the negative-log EC50 (pEC50) is 7.15. In addition, at AGTR1, the “DiscoveRx β-arrestin2 Ymax (%)” value came to 55.2% and the negative-log EC50 (pEC50) is 7.48.
`CCCCC(=O)N(Cc1ccc(-c2cc(-c3ccccc3)ccc2-c2nn[nH]n2)cc1)C1(C(=O)O)Cc2ccccc2C1` [Example 279]: the negative logarithm of the EC50 (pEC50) at hAT1R [1] was < 4.00; at hAT1R [2] it was 6.68; on AGTR1, 6.72. Besides, on hAT1R [2], the “BRET β-Arrestin2 High AT1R Expression Ymax (%)” value amounted to 82.6%. Moreover, the “DiscoveRx β-arrestin2 Ymax (%)” value at AGTR1 (maximal response) came to 33.7%.
In the case of `CCCCC(=O)N(Cc1ccc(-c2cc(-c3cc(F)cc(F)c3)ccc2-c2nn[nH]n2)cc1)C1(C(=O)O)CCCCC1` [Example 289], the pEC50 at hAT1R [1] was 6.26; at hAT1R [2] it was 7.89; at AGTR1 it was 7.32. Moreover, the “BRET β-Arrestin2 High AT1R Expression Ymax (%)” value at hAT1R [2] was 85.2%. Further, the “DiscoveRx β-arrestin2 Ymax (%)” value at AGTR1 (maximal response) came out at 51.1%.
For the compound `CCCc1nc(C(C)(C)O)c(C(=O)OCC)n1Cc1ccc(-c2cc(-c3ccccc3)ccc2-c2nn[nH]n2)cc1` [Example 401, ethyl 1-((6′-(2H-tetrazol-5-yl)-[1,1′:3′,1″-terphenyl]-4-yl)methyl)-4-(2-hydroxypropan-2-yl)-2-propyl-1H-imidazole-5-carboxylate], the pEC50 at hAT1R [1] is 5.65; on hAT1R [2], 6.59; at AGTR1, 6.26. Moreover, the “BRET β-Arrestin2 High AT1R Expression Ymax (%)” value at hAT1R [2] came to 74.5%. For the same compound, on AGTR1 (maximal response), the “DiscoveRx β-arrestin2 Ymax (%)” value is 43.7%.
The corresponding values for `CCCc1nc(CC)c(C(N)=O)n1Cc1ccc(-c2cc(-c3ccccc3)ccc2-c2nn[nH]n2)cc1` [Example 398, 1-((6′-(2H-tetrazol-5-yl)-[1,1′:3′,1″-terphenyl]-4-yl)methyl)-4-ethyl-2-propyl-1H-imidazole-5-carboxamide] are 7.45, 7.87, 7.90, 91.0% and 53.6%.
The corresponding values for `CCCCC(=O)N(Cc1ccc(-c2cc(-c3ccccc3)ccc2-c2nn[nH]n2)cc1)C1(C(=O)O)CCC1` [Example 270] are 5.33, 4.89, 5.18, 74.3% and 28.6%.
For the compound `CCCCC(=O)N(Cc1ccc(-c2cc(Oc3cccc(OC(F)(F)F)c3)ccc2-c2nn[nH]n2)cc1)[C@H](C(=O)O)C(C)C` [Example 437], on hAT1R [1], the negative logarithm of the EC50 (pEC50) is < 4.00. Also, on hAT1R [2], the “BRET β-Arrestin2 High AT1R Expression Ymax (%)” value is 16.4% and the negative logarithm of the EC50 (pEC50) was 6.78. In addition, on AGTR1, the “DiscoveRx β-arrestin2 Ymax (%)” value came out at 26.4% and the negative-log EC50 (pEC50) is 5.41.
Take `CCCc1nc(CC)c(C(=O)OCC)n1Cc1ccc(-c2cc(-c3ccccc3)ccc2-c2nn[nH]n2)cc1` [Example 395, ethyl 1-((6′-(2H-tetrazol-5-yl)-[1,1′:3′,1″-terphenyl]-4-yl)methyl)-4-ethyl-2-propyl-1H-imidazole-5-carboxylate]: the pEC50 on hAT1R [1] was 7.90; on hAT1R [2], 7.69; on AGTR1, 7.79. On hAT1R [2], the “BRET β-Arrestin2 High AT1R Expression Ymax (%)” value is on record as 92.4%. At AGTR1 (maximal response), the “DiscoveRx β-arrestin2 Ymax (%)” value worked out at 54.1%.
In the case of `CCCCc1nc(Cl)c(C(=O)O)n1Cc1ccc(-c2cc(-c3cncc(OC)c3)ccc2-c2nn[nH]n2)cc1` [Example 385], the negative logarithm of the EC50 (pEC50) on hAT1R [1] was 5.95; at hAT1R [2], 7.24; at AGTR1, 7.50. Besides, the “BRET β-Arrestin2 High AT1R Expression Ymax (%)” value at hAT1R [2] was found to be 87.0%. In addition, the “DiscoveRx β-arrestin2 Ymax (%)” value on AGTR1 (maximal response) is recorded as 35.4%.
On to `CCCCC(=O)N(Cc1ccc(-c2cc(-c3ccc(NC(C)=O)cc3)ccc2-c2nn[nH]n2)cc1)[C@H](C(=O)O)C(C)C` [Example 440], for which the negative logarithm of the EC50 (pEC50) at hAT1R [1] is 6.23; at hAT1R [2], 4.55; at AGTR1, 6.62. The “BRET β-Arrestin2 High AT1R Expression Ymax (%)” value at hAT1R [2] came to 50.1%. The “DiscoveRx β-arrestin2 Ymax (%)” value on AGTR1 was 13.6%.
